Laboratory results reported in patent US9862684B2, “Modulation of K2P channels” (The Regents of the University of California, priority 2013, dated 2018).

Tests used:
K2P10.1 (TREK-2) = molecular target: T1, K2P10.1 (TREK-2) (Mus musculus, UniProt Q8BUW1); assay: Two-electrode voltage clamp, Xenopus oocytes expressing K2P10.1 (TREK-2); format: cell-based, Murine
T1 construct: expressed in transfected cells; host or cells: Xenopus oocytes
T1 sequence (Q8BUW1 1-535): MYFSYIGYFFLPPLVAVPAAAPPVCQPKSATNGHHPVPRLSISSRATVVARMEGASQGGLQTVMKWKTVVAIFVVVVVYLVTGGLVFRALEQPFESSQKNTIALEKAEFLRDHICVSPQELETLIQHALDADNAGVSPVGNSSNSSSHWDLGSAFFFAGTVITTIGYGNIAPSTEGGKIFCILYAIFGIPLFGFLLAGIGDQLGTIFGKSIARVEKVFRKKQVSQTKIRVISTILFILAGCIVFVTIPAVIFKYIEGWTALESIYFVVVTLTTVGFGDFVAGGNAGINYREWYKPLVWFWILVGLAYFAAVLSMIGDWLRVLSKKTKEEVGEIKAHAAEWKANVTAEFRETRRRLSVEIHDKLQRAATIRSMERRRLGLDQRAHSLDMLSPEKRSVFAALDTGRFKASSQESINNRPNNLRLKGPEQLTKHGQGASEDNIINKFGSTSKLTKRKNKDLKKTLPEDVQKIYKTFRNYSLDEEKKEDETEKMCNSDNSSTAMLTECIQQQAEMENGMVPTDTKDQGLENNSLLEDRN
Procedure: (§1) FIG. 7 ML67-33 is a selective activator of heat- and mechanosensitive K2P channels. a-f, Exemplar I-V curves showing the effect of ML67-33 on a, K2P10.1 (TREK-2), b, K2P4.1 (TRAAK), c, K2P3.1 (TASK-1), d, K2P9.1 (TASK-3), e, K2P5.1 (TASK-2), and f, K2P18.1 (TRESK) measured in Xenopus oocytes in 2 mM [K^+]o pH 7.4. Currents were elicited by a voltage ramp from −150 to 50 mV, from a holding potential of −80 mV. g, Quantification of the effect of ML67-33 on the indicated channels. Data (mean±s.e., n≧6, N≧2) was normalized to basal channel activity and fitted to the Hill equation. […] Error bars indicate s.e., n≧6, N≧2.
(§2) Murine K2P channels were cloned into pGEMHE/pMO {Bagriantsev, 2011}, IRES-GFP (Invitrogen), or pYES2-MET25 (high copy 2μ, URA3) {Minor, 1999} for expression in oocytes, HEK-293T cells, and yeast, respectively, using standard molecular biology procedures, and verified by DNA sequencing.
(§3) Two-electrode voltage clamp recordings were performed from defolliculated stage V-VI Xenopus oocytes 24-48 hours after injection with 0.015-6.0 ng cRNA, using microelectrodes (0.3-3.0 MΩ) filled with 3M KCl. Data was acquired using the GeneClamp 500B (MDS Analytical Technologies) amplifier controlled by the pClamp software (Molecular Devices), and digitized at 1 kHz using Digidata 1332A (MDS Analytical Technologies). Recording solutions (mM): 2K (96 NaCl, 2 KCl, 1.8 CaCl2, 2 MgCl2), 90K (90 KCl, 8 NaCl, 1.8 CaCl2, 2 MgCl2), were buffered 5 mM HEPES pH 7.4. For K2P recordings, currents we elicited by a 1 second long ramp from −150 to +50 mV from a holding potential of −80 mV (2K), or −100 to +50 mV from a holding potential of 0 mV (90K). For KCNQ2 recordings, currents were elicited by a step protocol from −120 to 60 mV, in 20 mV increments, from a holding potential of −80 mV. Patch-clamp recordings from HEK-293T cells were performed using microelectrodes (2-3 MΩ) filled with 1M KCl. Data was acquired using the Axopatch 200B amplifier controlled by pClamp software, and digitized at 1 kHz using Digidata 1332A. Recording solutions (mM): intracellular (145 KCl, 5 EGTA, 3 MgCl2,) extracellular (150 NaCl, 5 KCl, 3 MgCl2, 1 CaCl2) were buffered with 5 mM HEPES pH 7.2 and 7.4, respectively. Currents were elicited by a 1 second long ramp from −150 to +50 mV from a holding potential of −80 mV. Data were fitted with a modified Hill's equation: I=Imin+(Imax−Imin)/(1+10^((Log EC50−Log [C])*H)), where Imax and Imin are maximal and minimal current values, respectively, EC50 is a half-maximal effective concentration of the compound, and H is the Hill coefficient.
There are six K2P subgroups {Noel, 2011} (FIG. 11). […]

K2P9.1 (TASK-3) = molecular target: T2, K2P9.1 (TASK-3) (Mus musculus, UniProt Q3LS21); assay: Two-electrode voltage clamp, Xenopus oocytes expressing K2P9.1 (TASK-3); format: cell-based, Murine
T2 construct: expressed in transfected cells; host or cells: Xenopus oocytes
T2 sequence (Q3LS21 whole entry): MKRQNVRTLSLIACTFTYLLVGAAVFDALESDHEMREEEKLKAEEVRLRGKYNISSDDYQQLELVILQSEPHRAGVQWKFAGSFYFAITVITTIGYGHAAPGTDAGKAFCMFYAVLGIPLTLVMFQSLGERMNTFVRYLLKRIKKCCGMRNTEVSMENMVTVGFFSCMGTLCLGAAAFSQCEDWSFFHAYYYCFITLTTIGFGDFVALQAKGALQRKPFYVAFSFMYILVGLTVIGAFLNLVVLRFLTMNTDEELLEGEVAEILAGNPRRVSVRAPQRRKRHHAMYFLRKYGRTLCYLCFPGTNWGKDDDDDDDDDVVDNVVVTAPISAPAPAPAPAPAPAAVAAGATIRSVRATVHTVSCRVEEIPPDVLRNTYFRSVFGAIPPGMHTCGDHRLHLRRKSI
Procedure: as §1, §2
as §3, with “Recording solutions (mM): intracellular (145 KCl, 5 EGTA, 3 MgCl2,) extracellular (150 NaCl, 5 KCl, 3 MgCl2, 1 CaCl2) were buffered with 5 mM HEPES pH 7.2 and 7.4, respectively. Currents were elicited by a 1 second long ramp from −150 to +50 mV from a holding potential of −80 mV. Data were fitted with a modified Hill's equation: I=Imin+(Imax−Imin)/(1+10^((Log EC50−Log [C])*H)), where Imax and Imin are maximal and minimal current values, respectively, EC50 is a half-maximal effective concentration of the compound, and H is the Hill coefficient.” left out

## CC1(C)c2cc(Cl)ccc2N(CCc2nnn[nH]2)c2ccc(Cl)cc21 [ML67-33, 2,7-dichloro-9,9-dimethyl-10-[2-(1H-tetrazol-5-yl)ethyl]acridine]
K2P10.1 (TREK-2); FIG. 7 legend: at 100 μM
  Emax (fold): 11.4±1.8 fold
K2P10.1 (TREK-2); Xenopus oocytes, 2 mM [K+]o pH 7.4
  EC50: 30.2 ± 1.4 µM
K2P9.1 (TASK-3); applied at 100 μM
  functional effect (in words): little or no functional effects
K2P9.1 (TASK-3); at 100 μM (FIG. 7 legend)
  Emax at 100 μM: 2.0±0.1
K2P9.1 (TASK-3); at 150 μM
  Emax (fold) at 150 μM: 2.1 ± 0.4 at 150 μM fold
